Legend:
[1] = tested on: Plasmopara viticola; assay: whole plant or invertebrate; type: in vivo; conditions: foliar, read-out: control of Plasmopara viticola compared to untreated control
[2] = tested on: Pythium ultimum; assay: Pythium ultimum / liquid culture (seedling damping off); type: cell-based; conditions: Globisporangium ultimum, liquid culture in PDB, 24 °C, 2-3 days after application, read-out: control of Pythium ultimum (inhibition of growth, photometric) compared to untreated control
Outline: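 Mycelia fragments and oospores from fresh liquid culture mixed into potato dextrose broth and added to compound in DMSO. Incubated at 24° C.; growth inhibition read photometrically 2–3 days after application.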

[3] = tested on: Phytophthora infestans; assay: whole plant or invertebrate; type: in vivo; conditions: in Solanum lycopersicum, foliar, read-out: control of Phytophthora infestans compared to untreated control

COC(=O)Nc1ccc(-c2cnc3ccc(C(=O)N(C)c4ccc(Cl)cc4)cn23)cc1 [Compound 2, methyl N-[4-[6-[(4-chlorophenyl)-methyl-carbamoyl]imidazo[1,2-a]pyridin-3-yl]phenyl]carbamate]
≥ 80%: pest or weed control at 200 ppm [1] | inhibition at 20 ppm [2] | pest or weed control at 200 ppm [3]

COC(=O)Nc1ccc(-c2cnc3c(NC(C)=O)cc(C(=O)N(C)c4ccc(F)cc4)cn23)cn1 [Compound 100, methyl N-[5-[8-acetamido-6-[(4-fluorophenyl)-methyl-carbamoyl]imidazo[1,2-a]pyridin-3-yl]-2-pyridyl]carbamate]
≥ 80%: pest or weed control at 200 ppm [1] | inhibition at 20 ppm [2] | pest or weed control at 200 ppm [3]

COC(=O)Nc1ccc(-c2cnc3c(NC(C)=O)cc(C(=O)N(C)c4ccc(F)c(OC)c4)cn23)cn1 [Compound 169, methyl N-[5-[8-acetamido-6-[(4-fluoro-3-methoxy-phenyl)-methyl-carbamoyl]imidazo[1,2-a]pyridin-3-yl]-2-pyridyl]carbamate]
≥ 80%: pest or weed control at 200 ppm [1] | inhibition at 20 ppm [2] | pest or weed control at 200 ppm [3]

COC(=O)Nc1ccc(-c2cnc3ccc(C(=O)N(C)c4ccc(F)c(O)c4)cn23)cn1 [Compound 96, methyl N-[5-[6-[(4-fluoro-3-hydroxy-phenyl)-methyl-carbamoyl]imidazo[1,2-a]pyridin-3-yl]-2-pyridyl]carbamate]
≥ 80%: pest or weed control at 200 ppm [1] | inhibition at 20 ppm [2] | pest or weed control at 200 ppm [3]

COC(=O)Nc1ccc(-c2cnc3c(OC)cc(C(=O)N(C)c4ccc(F)cc4)cn23)cn1 [Compound 84, methyl N-[5-[6-[(4-fluorophenyl)-methyl-carbamoyl]-8-methoxy-imidazo[1,2-a]pyridin-3-yl]-2-pyridyl]carbamate]
≥ 80%: pest or weed control at 200 ppm [1] | inhibition at 20 ppm [2] | pest or weed control at 200 ppm [3]

COC(=O)Nc1ccc(-c2cnc3c(C)cc(C(=O)N(C)c4ccc(F)c(F)c4)cn23)cn1 [Compound 174, methyl N-[5-[6-[(3,4-difluorophenyl)-methyl-carbamoyl]-8-methyl-imidazo[1,2-a]pyridin-3-yl]-2-pyridyl]carbamate]
≥ 80%: pest or weed control at 200 ppm [1] | inhibition at 20 ppm [2] | pest or weed control at 200 ppm [3]

CCN(C(=O)c1ccc2ncc(-c3ccc(NC(=O)OC)cc3)n2c1)c1ccc(Cl)cc1 [Compound 32, methyl N-[4-[6-[(4-chlorophenyl)-ethyl-carbamoyl]imidazo[1,2-a]pyridin-3-yl]phenyl]carbamate]
≥ 80%: pest or weed control at 200 ppm [1] | inhibition at 20 ppm [2] | pest or weed control at 200 ppm [3]

COC(=O)Nc1ccc(-c2cnc3ccc(C(=O)N(C)c4ccc(F)c(C)c4)cn23)cn1 [Compound 48, methyl N-[5-[6-[(4-fluoro-3-methyl-phenyl)-methyl-carbamoyl]imidazo[1,2-a]pyridin-3-yl]-2-pyridyl]carbamate]
≥ 80%: pest or weed control at 200 ppm [1] | inhibition at 20 ppm [2] | pest or weed control at 200 ppm [3]

COC(=O)Nc1ccc(-c2cnc3ccc(C(=O)N(C)c4ccnc(OC)c4)cn23)cc1 [Compound 26, methyl N-[4-[6-[(2-methoxy-4-pyridyl)-methyl-carbamoyl]imidazo[1,2-a]pyridin-3-yl]phenyl]carbamate]
≥ 80%: pest or weed control at 200 ppm [1] | inhibition at 20 ppm [2] | pest or weed control at 200 ppm [3]

COC(=O)Nc1ccc(-c2cnc3cc(C)c(C(=O)N(C)c4ccc(F)cc4)cn23)cn1 [Compound 86, methyl N-[5-[6-[(4-fluorophenyl)-methyl-carbamoyl]-7-methyl-imidazo[1,2-a]pyridin-3-yl]-2-pyridyl]carbamate]
≥ 80%: pest or weed control at 200 ppm [1] | inhibition at 20 ppm [2] | pest or weed control at 200 ppm [3]

COC(=O)Nc1ccc(-c2cnc3ccc(C(=O)N(c4ccc(Cl)cc4)C4CC4)cn23)cc1 [Compound 27, methyl N-[4-[6-[(4-chlorophenyl)-cyclopropyl-carbamoyl]imidazo[1,2-a]pyridin-3-yl]phenyl]carbamate]
≥ 80%: pest or weed control at 200 ppm [1] | inhibition at 20 ppm [2] | pest or weed control at 200 ppm [3]

COC(=O)Nc1ccc(-c2cnc3ccc(C(=O)N(C)c4ccc(Cl)c(OC)c4)cn23)cn1 [Compound 75, methyl N-[5-[6-[(4-chloro-3-methoxy-phenyl)-methyl-carbamoyl]imidazo[1,2-a]pyridin-3-yl]-2-pyridyl]carbamate]
≥ 80%: pest or weed control at 200 ppm [1] | inhibition at 20 ppm [2] | pest or weed control at 200 ppm [3]

COC(=O)Nc1ccc(-c2cnc3ccc(C(=O)N(C)c4cccc(I)c4)cn23)cn1 [Compound 73, methyl N-[5-[6-[(3-iodophenyl)-methyl-carbamoyl]imidazo[1,2-a]pyridin-3-yl]-2-pyridyl]carbamate]
≥ 80%: pest or weed control at 200 ppm [1] | inhibition at 20 ppm [2] | pest or weed control at 200 ppm [3]

CC(=O)Nc1ccc(-c2cnc3ccc(C(=O)N(C)c4ccc(Cl)cc4)cn23)cn1 [Compound 3, 3-(6-acetamido-3-pyridyl)-N-(4-chlorophenyl)-N-methyl-imidazo [1,2-a]pyridine-6-carboxamide]
≥ 80%: pest or weed control at 200 ppm [1] | inhibition at 20 ppm [2] | pest or weed control at 200 ppm [3]

COC(=O)Nc1ccc(-c2cnc3ccc(C(=O)N(C)c4cccc(OC)c4)cn23)cc1 [Compound 7, methyl N-[4-[6-[(3-methoxyphenyl)-methyl-carbamoyl]imidazo[1,2-a]pyridin-3-yl]phenyl]carbamate]
≥ 80%: pest or weed control at 200 ppm [1] | inhibition at 20 ppm [2] | pest or weed control at 200 ppm [3]

COC(=O)Nc1ccc(-c2cnc3ccc(C(=S)N(C)c4ccc(F)cc4)cn23)cn1 [Compound 164, methyl N-[5-[6-[(4-fluorophenyl)-methyl-carbamothioyl]imidazo[1,2-a]pyridin-3-yl]-2-pyridyl]carbamate]
≥ 80%: pest or weed control at 200 ppm [1] | inhibition at 20 ppm [2] | pest or weed control at 200 ppm [3]

COC(=O)Nc1ccc(-c2cnc3ccc(C(=O)N(C)c4ccc(C#N)cc4)cn23)cc1 [Compound 6, methyl N-[4-[6-[(4-cyanophenyl)-methyl-carbamoyl]imidazo[1,2-a]pyridin-3-yl]phenyl]carbamate]
≥ 80%: pest or weed control at 200 ppm [1] | inhibition at 20 ppm [2] | pest or weed control at 200 ppm [3]

COC(=O)Nc1ccc(-c2cnc3ccc(C(=O)N(C)c4ccc(F)c(F)c4)cn23)cn1 [Compound 50, methyl N-[5-[6-[(3,4-difluorophenyl)-methyl-carbamoyl]imidazo[1,2-a]pyridin-3-yl]-2-pyridyl]carbamate]
≥ 80%: pest or weed control at 200 ppm [1] | inhibition at 20 ppm [2] | pest or weed control at 200 ppm [3]

— patent publication US20240425500A1 (priority 2021, published 2024)
